Source: ChEMBL document CHEMBL5620374, “Synthesis and bioevaluation of novel stilbene-based derivatives as tubulin/HDAC dual-target inhibitors with potent antitumor activities in vitro and in vivo” (Eur J Med Chem, 2023)
Values belong to the compound of their own block, whether it stands above or below them.

Key:
K562 [1] = experiment: Antiproliferative activity against human K562 cells incubated for 72 hrs by MTT assay; format: functional, cell-based; conditions: K562, 72 h
K562 [2] = experiment: Antiproliferative activity against human K562 cells assessed as cell inhibition rate at 1 uM incubated for 72 hrs by MTT assay relative to control; format: functional
K562 [3] = experiment: Antiproliferative activity against human K562 cells assessed as cell inhibition rate at 0.1 uM incubated for 72 hrs by MTT assay relative to control; format: functional
K562 [4] = experiment: Antiproliferative activity against human K562 cells assessed as cell inhibition rate at 0.01 uM incubated for 72 hrs by MTT assay relative to control; format: functional
B16-F10 = experiment: Antiproliferative activity against mouse B16-F10 cells incubated for 72 hrs by MTT assay; format: functional, cell-based; conditions: B16-F10, 72 h
[5] = Antiproliferative activity against human HFL1 cells incubated for 72 hrs by MTT assay; format: toxicity, cell-based
MCF7 = experiment: cells; conditions: Homo sapiens, MCF7, 72 h
Description: Antiproliferative activity against human MCF7 cells incubated for 72 hrs by MTT assay

MDA-MB-231 = experiment: cells; conditions: Homo sapiens, MDA-MB-231, 72 h
Description: Antiproliferative activity against human MDA-MB-231 cells incubated for 72 hrs by MTT assay

A549 = experiment: cells; conditions: Homo sapiens, A549, 72 h
Description: Antiproliferative activity against human A549 cells incubated for 72 hrs by MTT assay

A2780 = experiment: cells; conditions: Homo sapiens, A2780, 72 h
Description: Antiproliferative activity against human A2780 cells incubated for 72 hrs by MTT assay

SMILES: C=C(c1cccc(OCCCC(=O)NO)c1)c1cc(C)nc2ccccc12
IC50 (K562 [1]): 3000 nM

SMILES: C=C(c1ccc(OC)c(OCCC(=O)NO)c1)c1cc(C)nc2ccccc12
IC50 (K562 [1]): 61 nM

SMILES: C=C(c1ccc(OC)c(O)c1)c1cc(/C=C/C(=O)NO)nc2ccccc12
inhibition at 1 µM (K562 [2]): 87.3%
inhibition at 0.1 µM (K562 [3]): 12.9%
inhibition at 0.01 µM (K562 [4]): -0.17%

SMILES: C=C(c1cc(C)nc(C)c1)c1ccc(OC)c(OCCCC(=O)NO)c1
IC50 (K562 [1]): 516 nM

SMILES: COc1ccc(/C=C\c2cc(OC)c(OC)c(OC)c2)cc1O [COMBRETASTATIN A4]
inhibition at 1 µM (K562 [2]): 95%
inhibition at 0.1 µM (K562 [3]): 88.4%
inhibition at 0.01 µM (K562 [4]): 86.6%
IC50 (K562 [1]): 7 nM
IC50 (B16-F10): 7 nM
IC50 at 72 h [5]: 82 nM
IC50 (MCF7): 71 nM
IC50 (MDA-MB-231): 29 nM
IC50 (A549): 2 nM

SMILES: C=C(c1ccnc(C)c1)c1ccc(OC)c(OCC(=O)NO)c1
IC50 (K562 [1]): 107 nM

SMILES: C=C(c1ccc(OC)cc1)c1cc(C(=O)Nc2ccccc2N)nc2ccccc12
inhibition at 1 µM (K562 [2]): 1.1%
inhibition at 0.1 µM (K562 [3]): 0.24%
inhibition at 0.01 µM (K562 [4]): -0.16%

SMILES: C=C(c1ccnc(OC)c1)c1ccc(OC)c(OCCCCCC(=O)NO)c1
IC50 (K562 [1]): 3860 nM

SMILES: C=C(c1ccc(OC)c(O)c1)c1cc(COCC(=O)NO)nc2ccccc12
inhibition at 1 µM (K562 [2]): 71.5%
inhibition at 0.1 µM (K562 [3]): 6.41%
inhibition at 0.01 µM (K562 [4]): 0.83%

SMILES: C=C(c1ccnc(OC)c1)c1ccc(OC)c(OCCCC(=O)NO)c1
IC50 (K562 [1]): 1140 nM

SMILES: C=C(c1cc(C)nc(C)c1)c1ccc(OC)c(OCC(=O)NO)c1
IC50 (K562 [1]): 26 nM
IC50 (B16-F10): 98 nM
IC50 at 72 h [5]: 264 nM
IC50 (MCF7): 52 nM
IC50 (MDA-MB-231): 111 nM
IC50 (A549): 69 nM
IC50 (A2780): 36 nM

SMILES: C=C(c1ccc(OC)c(OCCCCC(=O)NO)c1)c1cc(C)nc2ccccc12
IC50 (K562 [1]): 1840 nM

SMILES: C=C(c1ccc2[nH]ccc2c1)c1cc(/C=C/C(=O)NO)nc2ccccc12
inhibition at 1 µM (K562 [2]): 4.78%
inhibition at 0.1 µM (K562 [3]): 3.73%
inhibition at 0.01 µM (K562 [4]): 3.16%

SMILES: C=C(c1ccc(OC)c(O)c1)c1cc(C(=O)Nc2ccccc2N)nc2ccccc12
inhibition at 1 µM (K562 [2]): 4.26%
inhibition at 0.1 µM (K562 [3]): 3.71%
inhibition at 0.01 µM (K562 [4]): 0.16%

SMILES: C=C(c1ccc(OC)cc1)c1cc(/C=C/C(=O)NO)nc2ccccc12
inhibition at 1 µM (K562 [2]): 43.5%
inhibition at 0.1 µM (K562 [3]): 6.82%
inhibition at 0.01 µM (K562 [4]): 1.41%

SMILES: C=C(c1ccc(OC)cc1)c1cc(COCC(=O)NO)nc2ccccc12
inhibition at 1 µM (K562 [2]): 40%
inhibition at 0.1 µM (K562 [3]): 3%
inhibition at 0.01 µM (K562 [4]): 2.6%

SMILES: C=C(c1ccc2[nH]ccc2c1)c1cc(COCC(=O)NO)nc2ccccc12
inhibition at 1 µM (K562 [2]): 15%
inhibition at 0.1 µM (K562 [3]): 6.23%
inhibition at 0.01 µM (K562 [4]): 2.28%

SMILES: C=C(c1ccc2[nH]ccc2c1)c1cc(C(=O)Nc2ccccc2N)nc2ccccc12
inhibition at 1 µM (K562 [2]): 2.75%
inhibition at 0.1 µM (K562 [3]): 2.75%
inhibition at 0.01 µM (K562 [4]): -0.17%

Further lines, with some results ahead:

IC50 (K562 [1]): 1460 nM
SMILES: C=C(c1ccc(OC)c(OCCCC(=O)NO)c1)c1ccnc2ccccc12

IC50 (K562 [1]): 22200 nM
SMILES: C=C(c1ccc(OC)c(C(=O)Nc2ccccc2N)c1)c1cc(C)nc2ccccc12

IC50 (K562 [1]): 1490 nM
SMILES: C=C(c1ccnc(C)c1)c1ccc(OC)c(OCCCC(=O)NO)c1

IC50 (K562 [1]): 69 nM
SMILES: C=C(c1ccc(OC)c(OC(C)C(=O)NO)c1)c1ccnc2ccccc12 (stereo not drawn)

IC50 (K562 [1]): 1320 nM
SMILES: C=C(c1ccc(OC)c(C(=O)NO)c1)c1cc(C)nc2ccccc12

IC50 (K562 [1]): 173 nM
SMILES: C=C(c1ccc(OC)c(OCCCC(=O)NO)c1)c1cc(C)nc2ccccc12

IC50 (K562 [1]): 2880 nM
SMILES: C=C(c1ccnc(C)c1)c1ccc(OC)c(OCCCCCC(=O)NO)c1

IC50 (K562 [1]): 2260 nM
SMILES: C=C(c1ccc(OC)c(OCCCCCC(=O)NO)c1)c1cc(C)nc2ccccc12

IC50 (K562 [1]): 6860 nM
SMILES: C=C(c1cccc(OC(C)(C)C(=O)NO)c1)c1cc(C)nc2ccccc12

IC50 (K562 [1]): 2370 nM
SMILES: C=C(c1cccc(OC(C)C(=O)NO)c1)c1cc(C)nc2ccccc12 (stereo not drawn)

IC50 (K562 [1]): 61 nM
SMILES: C=C(c1ccnc(OC)c1)c1ccc(OC)c(OC(C)C(=O)NO)c1 (stereo not drawn)

IC50 (K562 [1]): 1920 nM
SMILES: C=C(c1cc(C)nc(C)c1)c1ccc(OC)c(OCCCCCC(=O)NO)c1

IC50 (K562 [1]): 204 nM
SMILES: C=C(c1ccc(OC)c(OC(F)(F)C(=O)NO)c1)c1cc(C)nc2ccccc12

IC50 (K562 [1]): 55 nM
SMILES: C=C(c1ccnc(OC)c1)c1ccc(OC)c(OCC(=O)NO)c1

IC50 (K562 [1]): 19 nM
IC50 (B16-F10): 72 nM
IC50 (MCF7): 19 nM
IC50 (MDA-MB-231): 99 nM
IC50 (A549): 80 nM
IC50 (A2780): 23 nM
SMILES: C=C(c1cc(C)nc(C)c1)c1ccc(OC)c(OC(C)C(=O)NO)c1 (stereo not drawn)
IC50 at 72 h [5]: 213 nM

IC50 (K562 [1]): 5 nM
IC50 (B16-F10): 4 nM
IC50 (MCF7): 44 nM
IC50 (MDA-MB-231): 31 nM
IC50 (A549): 9 nM
IC50 (A2780): 8 nM
SMILES: C=C(c1ccc(OC)c(OC(C)(C)C(=O)NO)c1)c1cc(C)nc2ccccc12
IC50 at 72 h [5]: 103 nM

IC50 (K562 [1]): 60 nM
SMILES: C=C(c1ccnc(C)c1)c1ccc(OC)c(OC(C)C(=O)NO)c1 (stereo not drawn)

IC50 (K562 [1]): 9270 nM
SMILES: C=C(c1cccc(OCCCCCC(=O)NO)c1)c1cc(C)nc2ccccc12

IC50 (K562 [1]): 3340 nM
SMILES: C=C(c1ccc(OC)c(OCCCCCC(=O)NO)c1)c1ccnc2ccccc12

IC50 (K562 [1]): 2480 nM
SMILES: C=C(c1cccc(OCC(=O)NO)c1)c1cc(C)nc2ccccc12

IC50 (K562 [1]): 42 nM
IC50 (B16-F10): 15 nM
IC50 (MCF7): 17 nM
IC50 (MDA-MB-231): 11 nM
IC50 (A549): 9 nM
IC50 (A2780): 5 nM
SMILES: C=C(c1ccc(OC)c(/C=C/C(=O)NO)c1)c1cc(C)nc2ccccc12
IC50 at 72 h [5]: 311 nM

IC50 (K562 [1]): 8 nM
IC50 (B16-F10): 28 nM
IC50 (MCF7): 55 nM
IC50 (MDA-MB-231): 32 nM
IC50 (A549): 38 nM
IC50 (A2780): 16 nM
SMILES: C=C(c1ccc(OC)c(OCC(=O)NO)c1)c1cc(C)nc2ccccc12
IC50 at 72 h [5]: 195 nM

IC50 (K562 [1]): 2740 nM
SMILES: C=C(c1cccc(OC/C=C/C(=O)NO)c1)c1cc(C)nc2ccccc12

IC50 (K562 [1]): 79 nM
SMILES: C=C(c1ccc(OC)c(OCC(=O)NO)c1)c1ccnc2ccccc12
